≈ marks a conversion by molar mass, not a printed value. Where two headings read alike, the source gives them in different places.

Consider two molecules from US8338141B2, “Methionine recovery processes” (Novus International, Inc., priority 2003, dated 2012).

For data set [1] the following is noted: for concentration of methionine remaining in the supernatant (mother liquor): buffer, 18 h. How it is done:
To the cell free broth containing the solubilized L-methionine, sulfuric acid (96% w/w) was added and its pH lowered to […], the isoelectric point of L-methionine. […] The slurry was then stored overnight at 4° C. to allow for precipitation of the crystals. The slurry was then centrifuged to collect the methionine crystals.
At pH of 1.68, cells from the slurried fermenter broth were separated first by centrifugation followed by filtration through a 0.45 micron filter. The pH of the filtrate was then raised to 5.75, the isoelectric point of methionine by addition of 50% NaOH, resulting in formation of L-methionine crystals. The slurry was placed in a refrigerator at 4° C. for 18 hours to allow for additional crystallization of methionine. The crystals were then removed by centrifugation and filtration and further dried on a lyophilizer. The dried crystals were harvested from the lyophilizer. […] Crystals were collected by centrifugation at 4° C. by using a pre-chilled centrifuge.
For optimal recovery of methionine, solids from the acidified slurry above were removed by centrifugation and filtration and the pH of the recovered filtrate was raised to 5.6 using NaOH. […] This solution was placed again in the refrigerator at 4° C. for 18 hours to allow for formation of additional methionine crystals. Crystals formed after 18 hours at 4° C. were filtered and dried in a lyophilizer.

Data set [2] in a line: soluble methionine concentration in the filtrate of L-methionine-supplemented fermentation broth slurry, by HPLC after centrifugation and filtration.
Method: (§1) The pH of the slurry was measured to be 5.54. A well-mixed sample of this slurry was drawn, and solids removed from the sample by centrifugation followed by filtration.
(§2) From a well-mixed sample of this slurry, solids were removed as before by centrifugation and filtration. […] At this point, the whole cells were separated from the methionine and fermentation solubles by centrifugation.
(§3) Methionine was added to the fermentation broth at a concentration of 56 g/L. In addition to soluble methionine, the slurry had insoluble methionine, microbial cells and components of fermentation media. 50% NaOH was added to the slurry at a concentration equal to 0.5 eq. weight of methionine. […] A sample of the slurry was removed and filtered as previously described.
(§4) Methionine was added to fermentation broth at a concentration of 77 g/L. The slurry was then heated to 70° C. without pH adjustment. This slurry was then filtered through a 0.45 micron filter in a heated filtration unit to remove the whole cells and other insoluble fermentation broth components. The filtrate was collected and analyzed for methionine.
(§5) Concentrated sulfuric acid (H2SO4, 96% w/w) was added in a concentration equal to 1 equivalent weight of methionine to the slurry, lowering the pH of the slurry to 2.49. Methionine concentration was measured from a sample after centrifugation and filtration as previously described.
(§6) H2SO4 (96% w/w) at a concentration of 1 equivalent weight of methionine was added to this slurry, decreasing the pH of the broth to 2.39.
A further data set can be described thus: physchem. Conditions: thermodynamic from solid.
For data set [3] the following is noted: 25° C., Merck Index 12th Edition 1996; cited from earlier work.

Method for physchem: as §1, §2, §3, §4, §5, §6

As a reminder, the solubility is the dissolved amount per volume that the medium holds. As for `CSCC[C@H](N)C(=O)O` [L-methionine], the “concentration of methionine remaining in the supernatant (mother liquor)” value was 39500 µg/mL in data set [1] (pH 5.6) and 47200 µg/mL in data set [1] (pH 5.75). Also, the “concentration of methionine remaining in the supernatant” value in data set [1] (pH 5.95) was found to be 33000 µg/mL. Also, the “solubility of methionine in fermentation broth” value in data set [2] (22° C., no pH adjustment) came to 38 mg/mL. The “solubility of methionine in the solution versus pH 9.36” value in data set [2] (NaOH 2 equivalent weight, pH 10.22) is listed as “unchanged”. Besides, the “solubility of L-methionine versus lower NaOH levels” value in data set [2] (NaOH 2.5 equivalent weight, pH 12.53) is listed as “did not further increase”. Besides, the “concentration of methionine in the filtrate” value in data set [2] (slurry with 56 g/L methionine, NaOH 1 eq weight, pH 9.38) is 56000 µg/mL; in data set [2] (slurry with 77 g/L methionine, heated to 70° C., no pH adjustment, 0.45 micron filter) it was 74600 µg/mL. For the same molecule, the additional methionine solubilized entry in data set [2] (slurry with 56 g/L methionine, NaOH 1.5, 2 and 2.5 eq wt, pH 9.82, 10.47 and 12.23) is “No additional methionine was solubilized”. Besides, the solubility stood at 38 mg/mL (≈ 255 mM) in “physchem” (22 °C, pH 5.54, plasma or biological fluid); 55 mg/mL (≈ 369 mM) in the data set “physchem” (pH 2.39, plasma or biological fluid); 75 mg/mL (≈ 503 mM) in “physchem” (pH 2.49, plasma or biological fluid); 58 mg/mL (≈ 389 mM) in “physchem” (pH 8.92, plasma or biological fluid); 78 mg/mL (≈ 523 mM) in the data set “physchem” (pH 9.36, plasma or biological fluid).

Turning to `CSCCC(N)C(=O)O` (racemic) [DL-methionine], the water solubility in data set [3] was 33.81 mg/mL (≈ 227 mM).
